Measured values published in patent US20180243317A1, “COMPOSITIONS COMPRISING A PI3K INHIBITOR AND AN HDAC INHIBITOR” (KARUS THERAPEUTICS LTD, priority 2015, published 2018).
Like-named read-outs stand apart in the source and are kept apart here.

How the values were obtained:
[1] = Rodent pharmacokinetics: oral bioavailability and clearance in male mice; design: species or system mouse; conditions: in vivo
Experimental: Formulation: 10% DMSO, 90% Saline
Dosing: 10 mg/kg P.O. and 5 mg/kg I.V.
Animals in Group 1 were administered intravenously with Example B solution formulation in 20% Propylene Glycol, 50% of PEG 400 and 30% of (20% HPβCD in water) via tail vein at a dose of 3 mg/kg.
Animals in Group 2 were administered with oral solution formulation of Example B in 20% Propylene Glycol, 50% of PEG 400 and 30% of (20% HPβCD in water) at a dose of 10 mg/kg;
Dosing: 10 mg/kg P.O. and 3 mg/kg I.V.
Animals in Group 1 were administered intravenously with Example G solution formulation in 5% NMP, 5% solutol HS-15 in 90% HPβCD solution (20% HPβCD in RO water) at 3 mg/kg dose.
Animals in Group 2 were administered orally with 10 mg/kg solution formulation of Example G in 5% NMP, 5% solutol HS-15 in 90% HPβCD solution (20% HPβCD in RO water)

[2] = tested on: panel of 94 cancer cell lines; assay: Potentiation study #2015030003, SRB proliferation assay; assay type: cell-based; conditions: 72 h
Experimental: (§1) 48 hours later, cells were treated with 10μL media containing compound at 20× final concentration (resulting in a final DMSO concentration of 0.1%). […] In addition, control plates with cells not exposed to compound were analyzed after 48 hours (time zero, Tz). […] Briefly—after compound treatment, media was aspirated and cells were fixed by addition of 10% TCA.
(§2) Average background optical density (derived from plates and wells containing medium without cells) was subtracted from the optical density values from all controls and treated cells.

[3] = tested on: LoVo cells (colorectal adenocarcinoma); assay: SRB proliferation assay (potentiation study); assay type: cell-based, human; conditions: in the presence of 100 nM Compound A, GI50 shift, z-score and/or HSA analysis
Experimental: as §1, §2

[4] = tested on: MINO cells (mantle cell lymphoma); assay: SRB proliferation assay (potentiation and concentration matrix studies); assay type: cell-based, human; conditions: in the presence of 100 nM Compound A, GI50 shift, z-score and/or HSA analysis
Experimental: (§3) Cell lines marked with ‡ were also tested in study #2015030004.
as §1, §2

[5] = tested on: PC-3 cells (prostate adenocarcinoma); assay: as above; assay type: cell-based, human; conditions: PC-3, in the presence of 100 nM Compound A; GI50 shift, z-score and/or HSA analysis
Experimental: as §3, §1, §2

Recombinant human HDAC6 = target: T1, Recombinant human HDAC6 (Homo sapiens, UniProt Q9UBN7); assay: HDAC biochemical assay with acetylated AMC-labeled peptide substrate; conditions: read-out: IC50 HDAC 6
T1 construct: GST (N); made in house; host or cells: Sf9 insect cells (baculovirus)
T1 sequence (Q9UBN7 1-1215): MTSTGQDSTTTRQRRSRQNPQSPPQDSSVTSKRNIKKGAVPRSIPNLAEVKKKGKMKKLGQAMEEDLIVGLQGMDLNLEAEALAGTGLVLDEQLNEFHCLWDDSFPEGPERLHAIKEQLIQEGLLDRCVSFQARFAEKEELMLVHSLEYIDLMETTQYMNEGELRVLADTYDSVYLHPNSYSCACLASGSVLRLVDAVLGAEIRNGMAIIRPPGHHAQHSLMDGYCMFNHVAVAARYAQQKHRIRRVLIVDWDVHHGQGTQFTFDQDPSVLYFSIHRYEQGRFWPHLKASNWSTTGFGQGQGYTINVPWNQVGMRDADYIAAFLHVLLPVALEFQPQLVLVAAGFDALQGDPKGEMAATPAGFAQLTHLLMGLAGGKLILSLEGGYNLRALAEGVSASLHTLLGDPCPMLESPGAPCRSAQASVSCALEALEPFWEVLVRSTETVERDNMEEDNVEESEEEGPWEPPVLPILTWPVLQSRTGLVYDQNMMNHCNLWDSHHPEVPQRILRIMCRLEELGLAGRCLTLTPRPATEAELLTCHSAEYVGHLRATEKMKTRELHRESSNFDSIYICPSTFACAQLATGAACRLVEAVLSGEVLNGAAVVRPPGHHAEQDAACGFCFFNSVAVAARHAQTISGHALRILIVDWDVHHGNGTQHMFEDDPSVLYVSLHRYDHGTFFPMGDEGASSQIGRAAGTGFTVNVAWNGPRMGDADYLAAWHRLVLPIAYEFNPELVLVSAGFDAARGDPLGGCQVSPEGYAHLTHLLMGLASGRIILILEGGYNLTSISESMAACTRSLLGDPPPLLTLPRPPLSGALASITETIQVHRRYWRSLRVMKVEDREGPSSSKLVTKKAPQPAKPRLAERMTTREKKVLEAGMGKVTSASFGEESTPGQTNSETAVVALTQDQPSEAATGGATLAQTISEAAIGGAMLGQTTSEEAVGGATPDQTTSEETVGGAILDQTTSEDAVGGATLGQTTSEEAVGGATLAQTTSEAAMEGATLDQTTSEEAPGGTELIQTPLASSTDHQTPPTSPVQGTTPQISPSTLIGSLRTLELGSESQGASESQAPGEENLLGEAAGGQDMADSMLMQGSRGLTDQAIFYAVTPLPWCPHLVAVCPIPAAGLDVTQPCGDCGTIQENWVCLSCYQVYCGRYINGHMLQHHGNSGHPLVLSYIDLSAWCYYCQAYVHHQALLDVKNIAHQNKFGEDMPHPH
Experimental: (§4) Activity against all zinc-dependent HDACs 1 to 11 was assessed by using an acetylated AMC-labeled peptide substrate. The substrate RHKKAc was used for all class I and IIb HDACs; for HDAC8, the substrate used was RHKAcKAc. […] All assays were based on the AMC-labeled substrate and developer combination.
(§5) The protocol involved a two-step reaction: first, the substrate with the acetylated lysine side chain is incubated with a sample containing HDAC activity, to produce the deacetylated products, which are then digested in the second step by the addition of developer to produce the fluorescent signal proportional to the amount of deacetylated substrates.
Human HDAC5 (GenBank Accession No. NM_005474), full length with N-terminal GST tag, MW=150 kDa, expressed in baculovirus expression system. Recombinant human HDAC6 (GenBank Accession No. BC069243), full length, MW=180 kDa, was expressed by baculovirus in Sf9 insect cells using an N-terminal GST tag.
(§6) Before use, 1 mg/mL BSA and DMSO are added.
(§7) Incubate for 2 hours at 30° C.
(§8) Fluorescence background signal is then subtracted from compound data signal.
(§9) Stage 1: Deacetylation of substrate by incubation of HDAC enzymes with compounds
(§10) Stage 2: Development by addition of Developer to digest the deacetylated substrate, and generate the fluorescent color; Detection: 360/460 Ex/Em

Human HDAC1 = target: T2, Human HDAC1 (Homo sapiens, UniProt Q13547); assay: as above; conditions: read-out: IC50 HDAC 1
T2 construct: full length with C-terminal His-tag and C-terminal FLAG-tag; His-tag (C); FLAG-tag (C); made in house; host or cells: baculovirus expression system
Experimental: as §4, §5
Human HDAC1 (GenBank Accession No. NM_004964), full length with C-terminal His-tag and C-terminal FLAG-tag, MW=56 kDa, expressed in baculovirus expression system.
as §6, §7, §8, §9, §10

T2 sequence (Q13547 whole entry): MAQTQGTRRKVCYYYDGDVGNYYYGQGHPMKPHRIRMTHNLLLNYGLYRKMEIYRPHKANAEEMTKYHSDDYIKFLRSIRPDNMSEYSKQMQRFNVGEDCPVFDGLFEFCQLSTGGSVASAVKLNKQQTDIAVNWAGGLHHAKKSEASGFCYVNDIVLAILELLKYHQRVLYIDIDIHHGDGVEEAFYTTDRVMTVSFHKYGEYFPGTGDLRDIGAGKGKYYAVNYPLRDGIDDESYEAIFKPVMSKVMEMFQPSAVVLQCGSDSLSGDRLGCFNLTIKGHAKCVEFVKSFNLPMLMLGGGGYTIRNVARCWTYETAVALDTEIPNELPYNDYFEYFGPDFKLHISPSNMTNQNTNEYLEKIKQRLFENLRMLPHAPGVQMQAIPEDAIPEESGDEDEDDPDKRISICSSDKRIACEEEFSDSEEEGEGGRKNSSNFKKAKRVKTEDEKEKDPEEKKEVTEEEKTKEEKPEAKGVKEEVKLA

In the case of `c1cc(-c2nc(N3CCOCC3)c3oc4ncc(CN5C[C@@H]6C[C@H]5CO6)cc4c3n2)c2cc[nH]c2c1` [A], the F ([1]; male, CD1, mouse) is reported as 73.77%, the clearance ([1]; male, CD1, mouse, iv, 5 mg/kg) is reported as 21.12 mL/min/kg and the clearance ([1]; male, mouse, iv) is reported as 21 mL/min/kg. For the same compound, the “Oral Bioavailability (F)” value ([1]; male, mouse, po, 10 mg/kg) was 74.

`O=C(NO)c1ccc(CN(c2cnccn2)c2cnccn2)cc1` [Example GG, 4-{[Bis(pyrazin-2-yl)amino]methyl}-N-hydroxybenzamide] showed a GI50 ([2]; Compound GG alone, read-out: GI50 values for the individual cell lines (range)) of 4.7 to 33 µM, a GI50 ([2]; Compound GG alone, read-out: mean (±s.e.m) GI50 value across the whole panel) of 17.3 µM and a GI50 ([2]; Compound GG in the presence of 100 nM Compound A, read-out: GI50 values for the individual cell lines (range)) of 1.7 to 35 µM. For the same compound, the GI50 ([2]; Compound GG in the presence of 100 nM Compound A, read-out: mean (±s.e.m) GI50 value across the whole panel) was 14.1 µM, the “potentiation of the pharmacological activity of Compound GG by Compound A” value [3] was “potentiate” and the “potentiation of the pharmacological activity of Compound GG by Compound A” value [4] was “potentiate”. The “potentiation of the pharmacological activity of Compound GG by Compound A” value [5] was “potentiate”.

In the case of `c1cc(-c2nc(N3CCOCC3)c3oc4ncc(CN5CCCCC5)cc4c3n2)c2cc[nH]c2c1` [Example I in WO2011/021038, reference compound], the “Oral Bioavailability (F)” value ([1]; male, mouse, po, 10 mg/kg) is reported as 28.

In the case of `O=C(NO)c1ccc(CN(c2cnccn2)c2cnccn2)c(F)c1` [Example HH, 4-{[Bis(pyrazin-2-yl)amino]methyl}-3-fluoro-N-hydroxybenzamide], the IC50 (Recombinant human HDAC6) is reported as ≤ 0.5 µM and the IC50 (Human HDAC1) is reported as 1 to 10 µM.

Compound `c1cc(-c2nc(N3CCOCC3)c3oc4ncc(CN5CCC6(CC5)COC6)cc4c3n2)c2cc[nH]c2c1` [B] has an F ([1]; mouse) of 74%, an AUC(0-t) ([1]; mouse, iv, 3 mg/kg) of 1510 ng·h/mL and an AUCinf ([1]; mouse, iv, 3 mg/kg) of 1512.20 ng·h/mL. It also gave a Cmax ([1]; mouse, iv, 3 mg/kg) of 621.42 ng/mL, a Vss ([1]; mouse, iv, 3 mg/kg) of 5.51 L/kg and a clearance ([1]; mouse, iv, 3 mg/kg) of 33.06 mL/min/kg. The t1/2 ([1]; mouse, iv, 3 mg/kg) was 1.23 h, the AUC(0-t) ([1]; mouse, po, 10 mg/kg) was 3730 ng·h/mL and the AUCinf ([1]; mouse, po, 10 mg/kg) was 4103.86 ng·h/mL.

For `COc1cccnc1N(Cc1ccc(C(=O)NO)cn1)c1cnccn1` [Example LL, N-Hydroxy-6-{[(3-methoxypyridin-2-yl)(pyrazin-2-yl)amino]methyl}pyridine-3-carboxamide], the IC50 (Recombinant human HDAC6) was ≤ 0.5 µM and the IC50 (Human HDAC1) was > 10 µM.

With `O=C(NO)c1ccc(CN(c2cnccn2)c2cccnn2)cc1` [Example MM, N-Hydroxy-4-{[(pyrazin-2-yl)(pyridazin-3-yl)amino]methyl}benzamide] the IC50 (Recombinant human HDAC6) was ≤ 0.5 µM and the IC50 (Human HDAC1) was > 10 µM.

In the case of `O=C(NO)c1ccc(CN(c2ccncn2)c2cnccn2)cc1` [Example DD, N-Hydroxy-4-{[(pyrazin-2-yl)(pyrimidin-4-yl)amino]methyl}benzamide], the IC50 (Recombinant human HDAC6) is reported as ≤ 0.5 µM and the IC50 (Human HDAC1) is reported as 1 to 10 µM.

In the case of `Cc1nsc(N(Cc2ccc(C(=O)NO)cc2)c2ccc(F)cn2)n1` [Example R, 4-(((5-Fluoropyridin-2-yl)(3-methyl-1,2,4-thiadiazol-5-yl)amino)methyl)-N-hydroxybenzamide], the IC50 (Recombinant human HDAC6) is reported as ≤ 0.5 µM and the IC50 (Human HDAC1) is reported as > 10 µM.

Work on `c1cc(-c2nc(N3CCOCC3)c3oc4ncc(CN5CCC56COC6)cc4c3n2)c2cc[nH]c2c1` [G] yielded an F ([1]; male, Balb/c, mouse) of 30% and a clearance ([1]; male, mouse, summary table, mice, IV, read-out: Clearance) of 26 mL/min/kg.

For `O=C(NO)c1ccc(CN(c2cnccn2)c2cnccn2)nc1` [Example II, 6-{[Bis(pyrazin-2-yl)amino]methyl}-N-hydroxypyridine-3-carboxamide], the IC50 (Recombinant human HDAC6) was ≤ 0.5 µM and the IC50 (Human HDAC1) was 1 to 10 µM.
